Measurements from patent US4863748A, “Dietary products and uses comprising methylsulfonylmethane” (priority 1986, dated 1989).

How the values were obtained:
[1] = system: rheumatoid arthritis and other intense pain-producing disease; experiment: Intravenous administration in acute intense pain-producing disease; assay type: in vivo, human
From the text: In U.S. Pat. No. 4,296,130, I teach that methylsulfonylmethane is so inert and non-toxic that aqueous solutions thereof can be used as a blood diluent. In healthy humans or other animals having adequately high methylsulfonylmethane blood levels, methylsulfonylmethane is in fact "inert" in the sense the term is used in that patent. However, in acutely ill patiets, dramatic beneficial benefits are often obtained by the intravenous administration of large doses of methylsulfonylmethane. For example, rheumatoid arthritic patients suffering from a flair-up of the disease which produces intense pain or crippling swelling of the joints or both achieve prompt relief, even those patients who obtain only minimal or delayed benefits from oral ingestion of methylsulfonylmethane.
Apparently, when a patient is in an acute stage of intense pain-producing disease, such as rheumatoid arthritis, osteoporosis, degenerative disc syndrome, an autoimmune disease or metathesized carcinoma, which produces intense pain, the relief from pain from oral ingestion of methylsulfonylmethane is sometimes too subtle or takes too long for the patient to obtain reasonably prompt subjective benefits therefrom.
Therefore, in one aspect this invention relates to a method for rapidly ameliorating at least the pain associated with an intense pain-producing disease by the intravenous administration of methylsulfonylmethane in an amount effective to ameliorate the pain.
The amount of methylsulfonylmethane intravenously administered can vary substantially because of its lack of toxicity and adverse side effects. Individual doses can vary from about 0.01 to 2 gm/kg, preferably from about 0.1 to 1 gm/kg, on a body weight basis, the usual dosage range is about 0.25 to 0.75 gm/kg, preferably about 0.5 gm/kg.
When large amounts are administered, e.g., in the order of 1 g/kg of body weight or more, i.e., infusion of 5% to 10% solution of methylsulfonylmethane in water, physiological saline or 5% dextrose is preferred. The rate of administration is preferably no greater than about 1 gm/kg/hr, although infusion rates as high as 2 gm/kg/hr are tolerated by patients, except for light-headedness of the type experienced by some blood donors is experienced by some patients at this rate.
For patients suffering from a serious chronic disease, e.g., an acute stage of rheumatoid arthritis or other acute inflammatory conditions or a patient in extreme pain, administer 1 gm/kg of methylsulfonylmethane i.v. as a 14% by wt. solution in sterile 5% dextrose solution, at the rate of 1 gm/kg/hr. Within 2-4 hours, significant subjective relief from the symptoms of the disease or condition is experienced by the patient, with the relief lasting for from 7 to 21 days.

rabbit eye = experiment: Rabbit eye irritated with sodium lauryl sulfate (Example 14); assay type: in vivo; details: 10% aqueous solution every hour
[2] = Excretion of methylsulfonylmethane; assay type: in vivo
From the text: Orally ingested methylsulfonylmethane is stored to some degree in various organs, presumably banked for future sulfur needs of the body. The skin excretion route is unusual, particularly since about one-third of a given oral dose can be found in the perspiration. Like NaCl, excretion depends somewhat on perspiration rate. The accumulation in and excretion of methylsulfonylmethane from the skin is believed to account for its cosmetic effect, viz., more youthful appearing, pliable, blemish-reduced skin. Chemical and radiolabeled sulfur (35-S) assays can be used to determine the extent to which important biomolecules as heparin, insulin, co-enzyme A and other --SH bearing enzymes, biotin, methionine enkaphalin, human growth factor, hemoglobin, calcitonin, fibrinogen, muscle protein and other compounds derive their thiol (--S--) and disulfide (--S--S--) groups from methylsulfonylmethane and the possible preference of methylsulfonylmethane over S-content amino acids as the donor with such synthesis.

anticholinesterases = details: in vivo; cited from earlier work
[3] = Naturally occurring body levels of methylsulfonylmethane; assay type: in vivo, animals
From the text: The methylsulfonylmethane is usually provided in the aninmal's normal feed rations, periodically throughout the day or on successive days, or both, e.g., for 2 to 21 days or even longer. The daily food ration appropriate for the animal being fed is supplemented with an amount of methylsulfonylmethane calculated to correspond to a predetermined amount per total body weight of the animals being fed. The exact amount of methylsulfonylmethane ingested each day is not always critical, particularly when methylsulfonylmethane administration is over an extended period of days, because the ingested methylsulfonylmethane accumulates in the body tissues and fluids, i.e., reaches an effective titer. Methylsulfonylmethane-supplemented rations providing levels of as low as 0.5-1 mg/kg animal body weight are sometimes effective and levels as high as 300 mg/kg body weight or more are well tolerated. The usual target level per individual animal is about 0.2-2.0 mg/kg body weight preferably 0.5-1.0 mg per kg body weight. Total daily supplements corresponding to up to about 1 gm/kg body weight or more, are preferably employed, depending on the degree of deficiency. Healthy animals often have methylsulfonylmethane blood levels of at least 1 ppm, and desirably, enough methylsulfonylmethane is provided to raise blood levels to above 1 ppm. […]

[4] = Pin worm (Enterobius) infection in laboratory mice (Examples 19 and 28(c)); assay type: in vivo; details: mouse, blood, po; one animal examined; 2% by wt. in feed and drinking water; read-out: blood level of methylsulfonylmethane
From the text: (§1) Laboratory mice determined by fecal cast examination to have pin worms were given commercial feed and drinking water, ad lib, both of which contained 2% by wt. methylsulfonylmethane. […] The blood level of methylsulfonylmethane in one animal examined exceeded 30 ppm.
(§2) Laboratory mice determined by fecal cast examination to have pin worms were given 2% by wt. of methylsulfonylmethane in both their commercial feed and drinking water, ad lib.

Enterobius (pin worms) = experiment: as above; assay type: in vivo; details: 2% by wt. in feed and drinking water
From the text: as §1, §2

Sclerotium rolfsii = experiment: Antifungal activity; assay type: cell-based; details: 500 ppm
From the text: While not as potent or toxic to microbial populations as specific drug agents, by reason of its extremely low host systemic toxicity, methylsulfonylmethane contrasts sharply with present antiinfective therapeutants and methodology. It is doubtful if chemical resistance will develop with infective agents controlled by high, but safe, systemic levels of methylsulfonylmethane.

[5] = 1 gm/kg i.v., 14% solution in 5% dextrose, 1 gm/kg/hr (Example 34)

CS(C)(=O)=O [methylsulfonylmethane]
duration of relief [1, 5]: 7 to 21 days
time to significant subjective relief from symptoms [1, 5]: 2 to 4 h
time to relief from pain ([1]; i.v.): within hours and often within minutes
relief in flare-up of rheumatoid arthritis ([1]; i.v., large doses): prompt relief
duration of remission maintained with oral ingestion after one i.v. administration ([1]; one i.v., then oral): weeks or months
clearing of irritated eye (rabbit eye): quickly cleared
rate of excretion ([2]; i.v. administration): very rapidly excreted
excretion of excess amounts (feces, renal pathway, skin) ([2]; in vivo): excreted unchanged
portion of a given oral dose found in the perspiration ([2]; oral): about one-third
lethal effects of anticholinesterases such as paraoxon, tetraethyl pyrophosphate and octamethyl pyrophosphoramide (anticholinesterases): antagonizes
blood level in healthy animals ([3]; healthy animals often): at least 1 ppm
methylsulfonylmethane in the humoral fluid ([3]; with maturity): less than 0.5 ppm
concentration at 408 h [4]: > 30000 ng/mL
worms and eggs in fecal cast after 17 days (Enterobius (pin worms)): free of worms and eggs
antiparasitic (antifungal) activity (Sclerotium rolfsii): good antiparasitic activity
